Where a name gives a salt, the structure may show the parent alone. Read-outs that look alike come from different tables or passages of the source.

Experimental findings from article PMC6792352, “Limited Chemical Structural Diversity Found to Modulate Thyroid Hormone Receptor in the Tox21 Chemical Library” (Environmental Health Perspectives, 2019) are described below.

The data set deals with GH3-TRE-Luc cell line. The following applies: read-out: AC50 (uM) modified / 1000, viability, 1 nM T3 present, 24 h.

Take `CCCCCCCCCCn1cc[n+](C)c1` [1-Decyl-3-methylimidazolium hexafluorophosphate]: the CC50 (Tox21_110001=Tox21_202624) was determined as 11.4 µM. Regarding `O=c1[nH]cc(F)c(=O)[nH]1` [5-Fluorouracil], the CC50 (Tox21_110001=Tox21_202335) was found to be 16.7 µM and the CC50 (Tox21_110001=Tox21_300112) worked out at 30.2 µM. For `NC(N)=O` [Carbamide peroxide], the CC50 (Tox21_110001=Tox21_302451) was determined as 69 µM.

In the case of `CCN(CC)C(=S)SSC(=S)N(CC)CC` [Disulfiram], the CC50 (Tox21_110001=Tox21_110280) is 19.9 µM, the CC50 (Tox21_110001=Tox21_300403) is 0.0747 µM and the CC50 (Tox21_110001=Tox21_400072) came out at 81.5 µM. As for `C#C[C@]1(O)CC[C@H]2[C@@H]3CCC4=CC(=O)CC[C@@H]4[C@H]3CC[C@@]21CC` (racemic) [dl-Norgestrel], the CC50 (Tox21_110001=Tox21_303623) was found to be 64.5 µM. As to `Oc1c(Cl)cc(Cl)cc1Sc1cc(Cl)cc(Cl)c1O` [Sodium bithionolate], the CC50 (Tox21_110001=Tox21_202791) was 7.44 µM. As to `CN(C)c1ccc2nc3ccc(=[N+](C)C)cc-3sc2c1` [Methylene Blue trihydrate], the CC50 (Tox21_110001=Tox21_202525) came to 27.1 µM. For the compound `CCCCCCCCCCCC(=O)O` [Triethanolamine Laurate], the CC50 (Tox21_110001=Tox21_302696) worked out at 85.4 µM. With `COc1ccc(C(=O)CC(=O)c2ccc(C(C)(C)C)cc2)cc1` [1-(4-tert-Butylphenyl)-3-(4-methoxyphenyl)propane-1,3-dione], the CC50 (Tox21_110001=Tox21_111427) came out at 24.3 µM and the CC50 (Tox21_110001=Tox21_202796) worked out at 71.9 µM. Take `Oc1ccc(OCc2ccccc2)cc1` [4-(Benzyloxyl)phenol]: the CC50 is, setting by setting: (Tox21_110001=Tox21_110396) 4.58 µM; (Tox21_110001=Tox21_201147) 10.2 µM.

In the case of `NNc1nncc2ccccc12` [Hydralazine hydrochloride], the CC50 (Tox21_110001=Tox21_302496) is 73.4 µM.

With `BrC1CCC(Br)C(Br)CCC(Br)C(Br)CCC1Br` (centres unmarked) [1,2,5,6,9,10-Hexabromocyclododecane], the CC50 is, setting by setting: (Tox21_110001=Tox21_201402) 17.5 µM; (Tox21_110001=Tox21_303176) 38.8 µM. In the case of `CN(C)c1ccc2nc3ccc(=[N+](C)C)cc-3sc2c1` [Methylene blue], the CC50 (Tox21_110001=Tox21_112497) is 21.1 µM and the CC50 (Tox21_110001=Tox21_302087) stood at 45.4 µM. As for `CCCCCCCCCCn1cc[n+](C)c1` [1-Decyl-3-methylimidazolium tetrafluoroborate], for the setting “Tox21_110001=Tox21_200592”, the CC50 turned out to be 13.1 µM. For `CCCCCCCCCCCCn1cc[n+](C)c1` [1-Dodecyl-3-methylimidazolium tetrafluoroborate], the CC50 (Tox21_110001=Tox21_202629) came to 3.46 µM. For `C=C(CC)C(=O)c1ccc(OCC(=O)O)c(Cl)c1Cl` [Ethacrynic acid], the CC50 is, setting by setting: (Tox21_110001=Tox21_110335) 27 µM; (Tox21_110001=Tox21_201102) 65.9 µM.

As for `O=C(OC[C@H]1O[C@@H](OC(=O)c2cc(O)c(O)c(OC(=O)c3cc(O)c(O)c(O)c3)c2)[C@H](OC(=O)c2cc(O)c(O)c(OC(=O)c3cc(O)c(O)c(O)c3)c2)[C@@H](OC(=O)c2cc(O)c(O)c(OC(=O)c3cc(O)c(O)c(O)c3)c2)[C@@H]1OC(=O)c1cc(O)c(O)c(OC(=O)c2cc(O)c(O)c(O)c2)c1)c1cc(O)c(O)c(OC(=O)c2cc(O)c(O)c(O)c2)c1` [Tannic acid], the CC50 (Tox21_110001=Tox21_111422) turned out to be 3.05 µM and the CC50 (Tox21_110001=Tox21_300079) was 15.7 µM. With `CN(C)C(=S)SC(=S)N(C)C` [Tetramethylthiuram monosulfide], the CC50 by setting is: (Tox21_110001=Tox21_111656) 2.19 µM; (Tox21_110001=Tox21_201554) 1.5 µM; (Tox21_110001=Tox21_302880) 0.329 µM. On to `N=C(N)c1ccc(OCCCCCOc2ccc(C(=N)N)cc2)cc1` [Pentamidine isethionate], for which the CC50 came out at 23.4 µM (Tox21_110001=Tox21_110742), 63.5 µM (Tox21_110001=Tox21_201722) and 41 µM (Tox21_110001=Tox21_300312).

`CN(C)c1ccc(C(=C2C=CC(=[N+](C)C)C=C2)c2ccc(N(C)C)cc2)cc1` [Gentian Violet]: the CC50 is, setting by setting: (Tox21_110001=Tox21_111084) 1.65 µM; (Tox21_110001=Tox21_201762) 0.893 µM; (Tox21_110001=Tox21_300571) 0.536 µM. Regarding `CC[n+]1ccccc1` [1-Ethylpyridinium bromide], the CC50 (Tox21_110001=Tox21_202695) stood at 32.7 µM. As to `COC(=O)Nc1nc2ccc(Sc3ccccc3)cc2[nH]1` [Fenbendazole], the CC50 (Tox21_110001=Tox21_110649) is 0.23 µM and the CC50 (Tox21_110001=Tox21_301828) amounted to 1.53 µM. With `CC[C@H]1OC(=O)[C@H](C)[C@@H](O[C@H]2C[C@@](C)(OC)[C@@H](O)[C@H](C)O2)[C@H](C)[C@@H](O[C@@H]2O[C@H](C)C[C@H](N(C)C)[C@H]2O)[C@](C)(O)C[C@@H](C)/C(=N\OCOCCOC)[C@H](C)[C@@H](O)[C@]1(C)O` [Roxithromycin], the CC50 (Tox21_110001=Tox21_301835) came out at 31 µM.

On to `CN(C)c1ccc(C(=C2C=CC(=[N+](C)C)C=C2)c2ccccc2)cc1` [Malachite green oxalate], for which the CC50 runs as follows: (Tox21_110001=Tox21_110008) 5.84 µM; (Tox21_110001=Tox21_202521) 0.0943 µM. Regarding `Oc1cccc2cccnc12` [8-Quinolinol salicylic acid (1:1)], where the note is “Tox21_110001=Tox21_110005”, the CC50 was 10.3 µM.

`NCCNc1cccc2ccccc12` [N-(1-Naphthyl)ethylenediamine dihydrochloride]: the CC50 reads like this: (Tox21_110001=Tox21_111184) 10.9 µM; (Tox21_110001=Tox21_201928) 37 µM; (Tox21_110001=Tox21_302783) 26 µM. Consider `CC[C@]1(O)C[C@@H]2CN(CCc3c([nH]c4ccccc34)[C@@](C(=O)OC)(c3cc4c(cc3OC)N(C)[C@H]3[C@@](O)(C(=O)OC)[C@H](OC(C)=O)[C@]5(CC)C=CCN6CC[C@]43[C@@H]65)C2)C1` [Vinblastine sulfate], for which the CC50 runs as follows: (Tox21_110001=Tox21_111498) 0.185 µM; (Tox21_110001=Tox21_112735) 2.29 µM.
